Test results from patent US4728736A, “Carbocyclic analogs of purine ribofuranosides” (priority 1984, dated 1988).
Converted amounts (≈) assume the structure as drawn.

Assays:
[1] = system: herpes simplex virus, type 1 (strain 377); assay: Antiviral activity (virus rating); […]; format: cell-based; conditions: strain 377, Vero cells; for EC50: Human alphaherpesvirus 1, 50% inhibition of virus-induced cytopathogenic effects, read-out: MIC50, Herpes Simplex Type 1; for Virus Rating (VR), Herpes Simplex Type 1: VR 0.5-0.9 marginal to moderate, VR >= 1 definite activity
[2] = system: herpes simplex virus, type 1 (strain HF); assay: Antiviral activity (virus rating); […]; format: cell-based; conditions: H.Ep. 2 cells; for EC50: Human alphaherpesvirus 1, HEp-2, strain HF, read-out: MIC50, Herpes Simplex Type 1; for Virus Rating (VR), Herpes Simplex Type 1: VR 0.5-0.9 marginal to moderate, VR >= 1 definite activity
[3] = system: vaccinia virus (Lederle Chorioallantoic strain); assay: microbe, parasite or virus in culture; format: cell-based; conditions: for Virus Rating (VR), Vaccinia Virus: Lederle Chorioallantoic strain, H.Ep. 2 cells, VR 0.5-0.9 marginal to moderate, VR >= 1 definite activity; for EC50: Orthopoxvirus vaccinia, HEp-2, read-out: MIC50, Vaccinia Virus
[4] = system: herpes simplex virus, type 1, and vaccinia virus; format: cell-based, type 1; vaccinia virus; conditions: cell culture
[5] = 50% inhibition of virus-induced cytopathogenic effects

SMILES	EC50 [1]	Virus Rating (VR), Herpes Simplex Type 1 [1]	EC50 [2, 5]	Virus Rating (VR), Herpes Simplex Type 1 ([2]; strain HF)	Virus Rating (VR), Vaccinia Virus [3]	EC50 [3]	MIC50, Herpes Simplex Type 1 ([2]; strain HF, 50% inhibition of virus-induced cytopathogenic effects)	inhibiting replication of vaccinia virus (in words) [3]	antiviral activity (in words) [4]
Nc1nc2c(nnn2[C@@H]2C[C@H](CO)[C@@H](O)[C@H]2O)c(=O)[nH]1 (relative stereo) [Formula IV, Y = O, carbocyclic analog of 8-azaguanosine]	58 µg/mL	2.2							
Nc1nc(Cl)c2ncn([C@@H]3C[C@H](CO)[C@@H](O)[C@H]3O)c2n1 (relative stereo) [Example 1, (1α,2α,3β,5β)-3-(2-Amino-6-chloro-9HH-purin-9-yl)-5-(hydroxymethyl)-1,2-cyclopentanediol]			10 µg/mL (≈ 33.4 µM)	1.7	1.2	20 µg/mL (≈ 66.7 µM)			
Nc1nc(N)c2nnn([C@@H]3C[C@H](CO)[C@@H](O)[C@H]3O)c2n1 (relative stereo) [Example 6, (1α,2α,3β,5β)-3-(5,7-Diamino-3H-1,2,3-triazolo[4,5-d]pyrimidin-3-yl)-5-(hydroxymethyl)-1,2-cyclopentanediol]		0.6	100 µg/mL (≈ 356 µM)	1.4					
CNc1nc(N)nc2c1ncn2[C@@H]1C[C@H](CO)[C@@H](O)[C@H]1O (relative stereo) [Example 3, (1α,2α,3β,5β)-3-[2-Amino-6-(methylamino)-9H-purin-9-yl]-5-(hydroxymethyl)-1,2-cyclopentanediol]			320 µg/mL (≈ 1090 µM)	1.3					
Nc1nc(Cl)c2nnn([C@@H]3C[C@H](CO)[C@@H](O)[C@H]3O)c2n1 (relative stereo) [Formula III, X = Cl, carbocyclic analog of 2-amino-6-chloro-8-azapurine ribofuranoside]			81 µg/mL	0.9	0.6				
Nc1ncnc2c1ncn2[C@@H]1O[C@H](CO)[C@@H](O)[C@@H]1O [Ara-A, reference compound]			2.5 to 10 µg/mL (≈ 9.35 to 37.4 µM)	2.0-2.2					
Nc1nc(N)c2ncn([C@@H]3C[C@H](CO)[C@@H](O)[C@H]3O)c2n1 (relative stereo) [Example 2, (1α,2α,3β,5β)-3-(2,6-Diamino-9H-purin-9-yl)-5-(hydroxymethyl)-1,2-cyclopentanediol]	197 µg/mL (≈ 703 µM)	2.2	0.32 µg/mL (≈ 1.14 µM)	4.6	3.8	2.3 µg/mL (≈ 8.21 µM)	0.3 µg/mL (≈ 1.07 µM)	highly active	very high activity
